Source: the supplement of paper PMC10307832

Tests used:
Experiment in all cases: relative viability (nuclei count vs DMSO), 5 days (fraction); higher = more cells survive
BAY61-3606 + Palbociclib = compound: COC1=C(C=C(C=C1)C2=CC3=NC=CN3C(=N2)NC4=C(C=CC=N4)C(=O)N)OC [BAY61-3606] + CC(=O)c1c(C)c2cnc(Nc3ccc(N4CCNCC4)cn3)nc2n(C2CCCC2)c1=O [Palbociclib] (partner 0.5 µM)
How it was run: (§1)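 Nuclei were stained with Hoechst during a one-step fixation (final 0.05% Triton X-100, 1% formaldehyde, 1 ug/ml Hoechst) carried out 5 days after dosing, then counted on 4× images. The cells, lung cancer lines in 1536-well plates, had been dosed by pin tool the day after seeding with one drug alone or a fixed anchor-drug dose plus five library-drug doses (not always all listed) in √10 steps. Relative viability is the nuclei count in treated wells divided by that in vehicle wells, and each value is the median of duplicate plates.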

Doxorubicin + Foretinib = compound: COc1cccc2c1C(=O)c1c(O)c3c(c(O)c1C2=O)C[C@@](O)(C(=O)CO)C[C@@H]3O[C@H]1C[C@H](N)[C@H](O)[C@H](C)O1 [Doxorubicin] + COc1cc2c(Oc3ccc(NC(=O)C4(C(=O)Nc5ccc(F)cc5)CC4)cc3F)ccnc2cc1OCCCN1CCOCC1 [Foretinib] (partner 0.25 µM)
How it was run: as §1

Doxorubicin + Dasatinib = compound: COc1cccc2c1C(=O)c1c(O)c3c(c(O)c1C2=O)C[C@@](O)(C(=O)CO)C[C@@H]3O[C@H]1C[C@H](N)[C@H](O)[C@H](C)O1 [Doxorubicin] + Cc1nc(Nc2ncc(C(=O)Nc3c(C)cccc3Cl)s2)cc(N2CCN(CCO)CC2)n1 [Dasatinib] (partner 0.075 µM)
How it was run: as §1

Doxorubicin + Pemetrexed = compound: COc1cccc2c1C(=O)c1c(O)c3c(c(O)c1C2=O)C[C@@](O)(C(=O)CO)C[C@@H]3O[C@H]1C[C@H](N)[C@H](O)[C@H](C)O1 [Doxorubicin] + Nc1nc2[nH]cc(CCc3ccc(C(=O)N[C@@H](CCC(=O)O)C(=O)O)cc3)c2c(=O)[nH]1 [Pemetrexed] (partner 0.2 µM)
How it was run: as §1

Question: Which relative viability (BAY61-3606 + Palbociclib; first compound 0.02 µM) does the source give for UMC-11 here?
Answer: 0.352

Question: What about the relative viability (BAY61-3606 + Palbociclib; first compound 0.06325 µM) of the same cell line?
Answer: 0.319

Question: What about the relative viability (BAY61-3606 + Palbociclib; first compound 0.2 µM) of the same cell line?
Answer: 0.304

Question: And the relative viability (BAY61-3606 + Palbociclib; first compound 0.6325 µM)?
Answer: 0.361

Question: What about the relative viability (BAY61-3606 + Palbociclib; first compound 2 µM) of the same cell line?
Answer: 0.339

Question: What about the relative viability (Doxorubicin + Foretinib; first compound 0.001 µM) of the same cell line?
Answer: 0.963

Question: And the relative viability (Doxorubicin + Foretinib; first compound 0.003162 µM)?
Answer: 1.02

Question: And the relative viability (Doxorubicin + Foretinib; first compound 0.01 µM)?
Answer: 1.02

Question: And the relative viability (Doxorubicin + Foretinib; first compound 0.03162 µM)?
Answer: 0.685

Question: And the relative viability (Doxorubicin + Foretinib; first compound 0.1 µM)?
Answer: 0.644

Question: What about the relative viability (Doxorubicin + Dasatinib; first compound 0.001 µM) of the same cell line?
Answer: 0.43

Question: What about the relative viability (Doxorubicin + Dasatinib; first compound 0.003162 µM) of the same cell line?
Answer: 0.47

Question: And the relative viability (Doxorubicin + Dasatinib; first compound 0.01 µM)?
Answer: 0.44

Question: And the relative viability (Doxorubicin + Dasatinib; first compound 0.03162 µM)?
Answer: 0.446

Question: And the relative viability (Doxorubicin + Dasatinib; first compound 0.1 µM)?
Answer: 0.282

Question: And the relative viability (Doxorubicin + Pemetrexed; first compound 0.001 µM)?
Answer: 0.831

Question: And the relative viability (Doxorubicin + Pemetrexed; first compound 0.003162 µM)?
Answer: 0.901

Question: And the relative viability (Doxorubicin + Pemetrexed; first compound 0.01 µM)?
Answer: 0.823

Question: What about the relative viability (Doxorubicin + Pemetrexed; first compound 0.03162 µM) of the same cell line?
Answer: 0.645

Question: What about the relative viability (Doxorubicin + Pemetrexed; first compound 0.1 µM) of the same cell line?
Answer: 0.636
